Measured values from patent US11001596B2, “7-phenylethylamino-4H-pyrimido[4,5-d][1,3]oxazin-2-one compounds as mutant IDH1 and IDH2 inhibitors” (Eli Lilly and Company, priority 2016, dated 2021).

Experiments:
IDH2-R172K = IDH2-R172K (Homo sapiens (Human), UniProt P48735, R172K); assay: Biochemical assay for IDH2 R172K mutant enzyme (conversion of αKG to 2HG, RapidFire MS); settings: IDH2/R172K IC50, 1.2 nM enzyme, 90 minutes, pH 7.0
Wild-type IDH2 = Wild-type IDH2 (Homo sapiens (Human), UniProt P48735); assay: Biochemical assay for wild-type IDH2 enzyme (isocitrate to αKG, LC-MS); settings: pH 7.5
Method: (§1) IDH1 and IDH2 enzymes catalyze the conversion of isocitrate to αKG. […] Following derivatization at room temperature for one hour, samples are extracted with 600 μL of EtOAc.

IDH2-R140Q = IDH2-R140Q (Homo sapiens (Human), UniProt P48735, R140Q); assay: Biochemical assay for IDH2 R140Q mutant enzyme (conversion of αKG to 2HG, RapidFire MS); settings: IDH2/R140Q IC50, 1.2 nM enzyme, 90 minutes, pH 7.0
Wild-type IDH1 = Wild-type IDH1 (Homo sapiens (Human), UniProt O75874); assay: Biochemical assay for wild-type IDH1 enzyme (isocitrate to αKG, LC-MS); settings: pH 7.5
Method: as §1

Sequence of Wild-type IDH2 (P48735 40-452): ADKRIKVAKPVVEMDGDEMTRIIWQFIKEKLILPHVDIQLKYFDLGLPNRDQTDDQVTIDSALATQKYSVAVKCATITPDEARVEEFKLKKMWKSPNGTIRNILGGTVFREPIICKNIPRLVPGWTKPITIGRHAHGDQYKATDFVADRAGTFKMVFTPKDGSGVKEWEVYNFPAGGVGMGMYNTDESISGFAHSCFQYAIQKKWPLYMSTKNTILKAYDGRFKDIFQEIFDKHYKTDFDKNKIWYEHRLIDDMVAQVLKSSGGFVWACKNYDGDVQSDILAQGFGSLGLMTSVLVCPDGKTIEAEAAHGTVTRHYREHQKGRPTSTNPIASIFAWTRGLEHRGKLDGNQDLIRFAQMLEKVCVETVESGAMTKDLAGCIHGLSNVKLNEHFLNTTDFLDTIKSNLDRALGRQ
Sequence of IDH2-R140Q (P48735 40-452 R140Q): as the sequence (P48735 40-452) above, with R101Q counted along it
Sequence of IDH2-R172K (P48735 40-452 R172K): as the sequence (P48735 40-452) above, with R133K counted along it
Sequence of Wild-type IDH1 (O75874 whole entry): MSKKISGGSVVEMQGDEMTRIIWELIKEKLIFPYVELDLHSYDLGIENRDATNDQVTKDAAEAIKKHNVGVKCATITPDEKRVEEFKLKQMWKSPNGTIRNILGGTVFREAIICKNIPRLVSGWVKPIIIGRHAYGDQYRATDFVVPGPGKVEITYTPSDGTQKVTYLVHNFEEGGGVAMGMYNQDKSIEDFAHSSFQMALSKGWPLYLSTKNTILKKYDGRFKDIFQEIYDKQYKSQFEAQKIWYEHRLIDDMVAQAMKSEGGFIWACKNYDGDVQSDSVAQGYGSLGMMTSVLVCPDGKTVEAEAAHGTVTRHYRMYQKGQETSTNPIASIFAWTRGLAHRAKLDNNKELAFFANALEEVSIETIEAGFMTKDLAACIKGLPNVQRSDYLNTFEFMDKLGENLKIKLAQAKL

| IC50 (IDH2-R172K) | IC50 (Wild-type IDH2) | IC50 (IDH2-R140Q) | IC50 (Wild-type IDH1) | SMILES |
| --- | --- | --- | --- | --- |
| 15.6 nM | 3370 nM | 64.8 nM | 425 nM | C=CC(=O)N1CCN(C(CC2CC2)c2ccc([C@H](C)Nc3ncc4c(n3)N(C)C(=O)OC4)cc2)CC1 (single isomer, unassigned) [Example 3] |
| 28 nM | 3700 nM | 81.1 nM | 302 nM | C=CC(=O)N1CCN(C(CC2CC2)c2ccc([C@H](C)Nc3ncc4c(n3)N(C)C(=O)OC4)cc2)CC1 (single isomer, unassigned) [Example 4] |
| 22.4 nM | 1530 nM | 74.3 nM | 233 nM | C=CC(=O)N1CCN(C(CC(C)C)c2ccc([C@H](C)Nc3ncc4c(n3)N(CC)C(=O)OC4)cc2)CC1 (single isomer, unassigned) [Example 7] |
| 17 nM | 1620 nM | 46 nM | 237 nM | C=CC(=O)N1CCN(C(CC(C)C)c2ccc([C@H](C)Nc3ncc4c(n3)N(CC)C(=O)OC4)cc2)CC1 (single isomer, unassigned) [Example 8] |
| 20 nM | 2080 nM | 54.3 nM | 345 nM | C=CC(=O)N1CCN(C(CC)c2ccc([C@H](C)Nc3ncc4c(n3)N(CC)C(=O)OC4)cc2)CC1 (single isomer, unassigned) [Example 11] |
| 26.3 nM | 3220 nM | 134 nM | 277 nM | C=CC(=O)N1CCN(C(CC)c2ccc([C@H](C)Nc3ncc4c(n3)N(CC)C(=O)OC4)cc2)CC1 (single isomer, unassigned) [Example 12] |
| 39 nM | 7030 nM | 239 nM | 456 nM | C=CC(=O)N1CCN(C(CCOC)c2ccc([C@H](C)Nc3ncc4c(n3)N(CC)C(=O)OC4)cc2)CC1 (single isomer, unassigned) [Example 13] |
| 162 nM | 7400 nM | 746 nM | 392 nM | C=CC(=O)N1CCN(C(CCOC)c2ccc([C@H](C)Nc3ncc4c(n3)N(CC)C(=O)OC4)cc2)CC1 (single isomer, unassigned) [Example 14] |
|  | 493 nM |  | 54.9 nM | C=CC(=O)N1CCN(C(CC(C)C)c2ccc([C@H](C)Nc3ncc4c(n3)N(CC)C(=O)OC4)cc2)CC1 (stereo partly drawn) [Example 6, 1-Ethyl-7-[[(1S)-1-[4-[3-methyl-1-(4-prop-2-enoylpiperazin-1-yl)butyl]phenyl]ethyl]amino]-4H-pyrimido[4,5-d][1,3]oxazin-2-one] |

| SMILES | IC50 (IDH2-R172K) | IC50 (Wild-type IDH2) | IC50 (IDH2-R140Q) | IC50 (Wild-type IDH1) |
| --- | --- | --- | --- | --- |
| C=CC(=O)N1CCN([C@H](CC2CC2)c2ccc([C@H](C)Nc3ncc4c(n3)N(CC)C(=O)OC4)cc2)CC1 [Example 1, 7-[[(1S)-1-[4-[(1R)-2-Cyclopropyl-1-(4-prop-2-enoylpiperazin-1-yl)ethyl]phenyl]ethyl]amino]-1-ethyl-4H-pyrimido[4,5-d][1,3]oxazin-2-one] | 32.8 nM | 801 ± 745 nM | 113 nM | 85.4 ± 107 nM |
| C=CC(=O)N1CCN([C@@H](CC2CC2)c2ccc([C@H](C)Nc3ncc4c(n3)N(CC)C(=O)OC4)cc2)CC1 [Example 2, 7-[[(1S)-1-[4-[(1S)-2-cyclopropyl-1-(4-prop-2-enoylpiperazin-1-yl)ethyl]phenyl]ethyl]amino]-1-ethyl-4H-pyrimido[4,5-d][1,3]oxazin-2-one] | 11.5 nM | 884 ± 748 nM | 36.9 nM | 105 ± 113 nM |
